Laboratory results as given in PMC9234671, “Molecular determinants of αVβ5 localization in flat clathrin lattices – role of αVβ5 in cell adhesion and proliferation” (Journal of Cell Science, 2022).

Tested on: β5 Ser-759/762 phosphorylation
Assay: Mass spectrometry of β5 immunoprecipitates: β5 phosphorylation
Type: cell-based, human
From the text: Journal of Cell Science | Peer review history […]
opinion most interesting findings linked to the serine/threonine phosphorylation sites.
Response: We have now changed the t itle and abstract to better emphasize the interesting and novel findings (page 1 -2).
Reviewer 2 Comments for the author...
There are some points that the authors may want to consider: […]
only very limited binding to kindlin-1/2. Furthermore, the phosphomimetic β5-S759/762E mutant promotes localization in FCLs. In the BirA experiments, the authors detect no biotinylation of clathrin adaptors ARH and NUMB with the b5/b1 or b5/b1 chimeras, in contrast to the b5 wt. Is this also the case for clathrin or AP2-mu, established components of FCL?
Response: We thank the reviewer for his/her useful remark. […]
The peptide pull-downs in figure 2 are a little problematic given the high Bg binding of NUMB and ARH to the b1 scr peptide. […] In addition, quantifications from several biological repeats of the pulldowns might help t o establish the reproducibility and statistical significance of the differences indicated by the authors in the text. […]
Figure 3. […] Specifically, we assessed whether phosphorylation of […]
of β5 at S759 and S762 could be detected (discussed in the middle of page 13).
Figure 4. is there a reason for using talin rather than vinculin staining as a FA marker here? […] Could this be analysed and mentioned in the text? […]

Question: With COC[C@@H]([C@H](O)[C@H](O)C(=O)NCC[C@H](C)c1nc(/C=C/C[C@@H]2O[C@]3(C[C@@H](O)[C@@H]2C)O[C@H]([C@H](C[C@H](O)[C@H](C)[C@H](O)[C@H](C)/C=C(C)/C(C)=C/C=C/C(C)=C\C#N)OC)[C@H](OP(=O)(O)O)C3(C)C)co1)N(C)C [calyculin A] as the compound, how does the “detection of β5 phosphorylation at S759 and S762” value (25 nM calyculin for 20 min, PA-JEB/β4 keratinocytes, anti-β5 immunoprecipitation, MS/MS) read?
Answer: no phosphorylation

Question: What about the “detection of β5 phosphorylation at Ser-759/762” value (calyculin A-treated cells, mass spectrometry of β5 immunoprecipitates) of the same compound?
Answer: unsuccessful
